Article PMC5872323, “The Plant Defensin NaD1 Enters the Cytoplasm of Candida albicans via Endocytosis” (Journal of Fungi, 2018)
Where no end group is shown, it is not given here.

Columns and labels:
C. albicans DAY185 [1] = assay: Flow cytometry cell death assay (PI positive cells) at 30 °C or 4 °C; format: cell-based, Candida albicans; details: 0, 5, 10 or 20 µM peptide, 5 µM PI, 30 min, half-strength PDB, three biological replicates
Protocol: (§1) C. albicans DAY185 overnight cultures were diluted in half-strength potato dextrose broth (PDB) to an OD600 of 0.2 and grown for 3 h (30 °C, 250 rpm) before they were diluted again to an OD600 of 0.1 with half-strength PDB and used in cell death and NaD1 uptake assays. Cell death assays were conducted by treating 300 µL of C. albicans cells with 0, 5, 10 or 20 µM of native NaD1 or LL-37 and 5 µM PI. NaD1 uptake at 4 °C was measured by treating 300 µL of cells with 0, 5 or 10 µM BODIPY-labelled NaD1. All treatments were conducted for 30 min at either 30 °C or 4 °C without shaking and in the dark. […] For BODIPY-labelled NaD1, cells were excited at 488 nm and emission was detected using a 530/30 filter. For PI, cells were excited at 488 nm and emission was detected using a 670LP filter. Data were analysed using Weasel v3.0 (Walter and Eliza Hall Institute, Parkville, Australia).
(§2) Figure 2 NaD1 induced cell death and uptake is reduced at 4 °C. […] PI (5 µM) was added for quantitation of cell death. Cells with PI fluorescence were counted using a flow cytometer to separate living and dead cells at both 30 °C (grey shading) and 4 °C (black line). Data is a representative example from three independent experiments; (Aii) The percentage of PI positive cells (percent cell death) relative to total cell counts was also calculated for three biological replicates and is shown in a bar graph. […]

C. albicans DAY185 [2] = assay: Fungal growth inhibition assay; format: cell-based, Candida albicans; details: half-strength PDB, 30 °C, 24 h, absorbance 595 nm, n = 3
Protocol: (§3) Fungal growth inhibition assays were performed essentially as described in [30]. Overnight cultures of C. albicans cells were diluted to 5000 cells/mL with half-strength PDB. For growth inhibition assays in the presence of latrunculin A, 80 µL of diluted C. albicans DAY185 cells were added to 10 µL of latrunculin A and 10 µL of NaD1 in a 96 well microtiter plate (Greiner, Kremsmünster, Austria) to final concentrations of 2.5, 3, 4 and 4.5 µM NaD1 and 0 or 20 μM latrunculin A (AdipoGen). For brefeldin A and nocodazole assays, 80 µL of diluted C. albicans DAY185 cells was added to 10 µL of inhibitor and 10 µL of NaD1 in a microtiter plate. Brefeldin A (Sigma) and nocodazole where serially diluted (two-fold) down the plate with top final concentrations of 40 µM and 20 µM respectively. NaD1 was added to all wells at a final concentration of 2.5 µM. No-inhibitor controls were also included. For testing the antifungal activity of NaD1 against the C. albicans ESCRT mutants, 80 µL of diluted cells (DAY286 wild type and mutants) were added to 20 µL of NaD1 serially diluted from a top final concentration of 10 µM. All plates were incubated at 30 °C overnight without shaking. Growth of cells was monitored by measuring absorbance at 595 nm in a SpectraMAX M5e plate reader (Molecular Devices, San Jose, CA, USA). Measurements were taken at t = 0 and t = 24 h.

C. albicans DAY286 (WT) = assay: Fungal growth inhibition assay, ESCRT wild type; format: cell-based, Candida albicans; details: half-strength PDB, 30 °C, 24 h, absorbance 595 nm, IC50 ± standard deviation, n = 4
Source text: (§4) All C. albicans strains were obtained from the fungal genetic stock centre and are described in [26, 27, 28]. Strains were derived from the BWP17 background strain (ura3::imm434/ura3::imm434 iro1/iro1::imm434 his1::hisG/his1::hisG arg4/arg4). The DAY185 wild-type C. albicans strain (ARG4+, URA3+, HIS1+) was used in most assays. For testing of C. albicans ESCRT mutants, DAY286 (ARG4+, URA3+, his1-) was used as the wild-type strain. C. albicans ESCRT (ARG4+, URA3+, his1-) mutants were produced by transposon insertion. Strains were grown in yeast extract-peptone dextrose (YPD) at 30 °C with shaking (250 rpm). For C. albicans mutant strains, YPD was supplemented with 80 µg/mL uridine.
Fungal growth inhibition assays were performed essentially as described in [30]. Overnight cultures of C. albicans cells were diluted to 5000 cells/mL with half-strength PDB. For growth inhibition assays in the presence of latrunculin A, 80 µL of diluted C. albicans DAY185 cells were added to 10 µL of latrunculin A and 10 µL of NaD1 in a 96 well microtiter plate (Greiner, Kremsmünster, Austria) to final concentrations of 2.5, 3, 4 and 4.5 µM NaD1 and 0 or 20 μM latrunculin A (AdipoGen). […] Growth of cells was monitored by measuring absorbance at 595 nm in a SpectraMAX M5e plate reader (Molecular Devices, San Jose, CA, USA). […]

C. albicans bro1Δ = assay: Fungal growth inhibition assay, ESCRT mutant; format: cell-based, Candida albicans; details: half-strength PDB, 30 °C, 24 h, absorbance 595 nm, IC50 ± standard deviation, n = 4
Source text: as §4, §3

C. albicans snf7Δ = assay: Fungal growth inhibition assay, ESCRT mutant; format: cell-based, Candida albicans; details: half-strength PDB, 30 °C, 24 h, absorbance 595 nm, IC50 ± standard deviation, n = 4
Source text: as §4, §3

C. albicans vps23Δ = assay: Fungal growth inhibition assay, ESCRT mutant; format: cell-based, Candida albicans; details: half-strength PDB, 30 °C, 24 h, absorbance 595 nm, IC50 ± standard deviation, n = 4
Source text: as §4, §3

C. albicans vps24Δ = assay: Fungal growth inhibition assay, ESCRT mutant; format: cell-based, Candida albicans; details: half-strength PDB, 30 °C, 24 h, absorbance 595 nm, IC50 ± standard deviation, n = 4
Source text: as §4, §3

C. albicans vps28Δ = assay: Fungal growth inhibition assay, ESCRT mutant; format: cell-based, Candida albicans; details: half-strength PDB, 30 °C, 24 h, absorbance 595 nm, IC50 ± standard deviation, n = 4
Source text: as §4, §3

C. albicans vps2Δ = assay: Fungal growth inhibition assay, ESCRT mutant; format: cell-based, Candida albicans; details: half-strength PDB, 30 °C, 24 h, absorbance 595 nm, IC50 ± standard deviation, n = 4
Source text: as §4, §3

C. albicans vps36Δ = assay: Fungal growth inhibition assay, ESCRT mutant; format: cell-based, Candida albicans; details: half-strength PDB, 30 °C, 24 h, absorbance 595 nm, IC50 ± standard deviation, n = 4
Source text: as §4, §3

C. albicans DAY185 [3] = details: growth inhibition of C. albicans DAY185, previously reported; cited from earlier work
C. albicans DAY185 [4] = assay: Confocal microscopy of BODIPY-NaD1 uptake after CCCP or latrunculin A pre-treatment (cell counts); format: cell-based, Candida albicans; details: 0 µM CCCP (no-inhibitor control), 10 µM BODIPY-NaD1 for 10 min, n = 4
Protocol: C. albicans DAY185 overnight cultures were diluted in half-strength potato dextrose broth (PDB; Becton Dickinson, Scoresby, Australia) to an OD600 of 0.2 and grown for a further three hours (30 °C, 250 rpm). Cells were then diluted to an OD600 of 0.3 with half-strength PDB. For time course experiments, 300 µL aliquots (in 1.5 mL microcentrifuge tubes) were pre-treated with 5 µM propidium iodide (PI; Sigma, St Louis, MO, USA) for 10 min prior to addition of BODIPY- labelled NaD1. For CCCP and latrunculin A experiments, yeast cells were pre-treated with 50 µM CCCP (Sigma) or 100 µM latrunculin A (AdipoGen, Liestal, Switzerland) for 2 h (30 °C, 250 rpm) before addition of 5 µM PI. BODIPY-NaD1 (10 µM) was then added and cells were monitored using a Zeiss LSM510/ConfoCor confocal with images taken every 5 sec. BODIPY was excited at 488 nm (Argon laser) and emission was detected at 505 to 530 nm. PI was excited at 561 nm (DPSS laser) and fluorescence was monitored at 575 to 615 nm. Images were captured using Zen2009 (Zeiss, Oberkochen, Germany) software and analysed using FIJI (Bethesda, Rockville, MD, USA). Brightness and contrast for Figure 1, Figure 3 and Figure 4 were adjusted using the auto-brightness/contrast function of FIJI.
Figure 3 NaD1 uptake is reduced after treatment with CCCP. […]

C. albicans DAY185 [5] = assay: Flow cytometry BODIPY-NaD1 uptake at 30 °C or 4 °C; format: cell-based, Candida albicans; details: 0, 5 or 10 µM BODIPY-NaD1, 30 min, half-strength PDB, three biological replicates
Protocol: as §1, §2

Row | Substance | cell death (PI positive cells) at 4 °C compared to 30 °C (C. albicans DAY185 [1]) | growth of cells with NaD1 plus brefeldin A versus NaD1 only (C. albicans DAY185 [2]; 2.5 µM NaD1 with 20 µM brefeldin A) | growth inhibition by NaD1 in the presence of latrunculin A (C. albicans DAY185 [2]; 2.5 µM NaD1 with 20 µM latrunculin A, 5000 cells/mL) | growth of cells with NaD1 plus nocodazole versus NaD1 only (C. albicans DAY185 [2]; 2.5 µM NaD1 with 20 µM nocodazole) | protection of cells from NaD1 by latrunculin A (C. albicans DAY185 [2]; 4 µM NaD1 with 20 µM latrunculin A, 5000 cells/mL) | IC50 (C. albicans DAY286 (WT)) [µM] | IC50 (C. albicans bro1Δ) [µM] | IC50 (C. albicans snf7Δ) [µM] | IC50 (C. albicans vps23Δ) [µM] | IC50 (C. albicans vps24Δ) [µM] | IC50 (C. albicans vps28Δ) [µM] | IC50 (C. albicans vps2Δ) [µM] | IC50 (C. albicans vps36Δ) [µM] | IC50 (C. albicans DAY185 [3]) [µM] | cells with BODIPY-labelled NaD1 accumulated on the cell surface, relative to total cell counts (C. albicans DAY185 [4]) | cells containing BODIPY-labelled NaD1 in the cytoplasm at 4 °C compared to 30 °C (C. albicans DAY185 [5])
1 | NaD1: plant defensin from ornamental tobacco, purified from the flowers of Nicotiana alata (RECKTESNTFPGICITKPPCRKACISEKFTDGHCSKILRRCLCTKPC; ends and bridges not checked; cysteine pairing not given here; UniProt Q8GTM0 26-72, looked up) | less cell death | No significant difference | reduced | No significant difference | did not protect | 1.8 ± 0.49 | 2.1 ± 0.35 | 1.9 ± 0.45 | 1.8 ± 0.43 | 2.1 ± 0.33 | 1.6 ± 0.33 | 1.8 ± 0.4 | 1.7 ± 0.28 | 2.3 ± 0.6 |  | 
2 | BODIPY-NaD1: NaD1 fluorescently labelled with BODIPY-FL-EDA (RECKTESNTFPGICITKPPCRKACISEKFTDGHCSKILRRCLCTKPC; BODIPY-FL-EDA label; UniProt Q8GTM0 26-72, looked up) |  |  |  |  |  |  |  |  |  |  |  |  |  |  | about 21% | Fewer cells
